The subject of one test is A375 cells. The test can be described thus: Inhibition of cancer cell growth, MTT assay, A375. The note with it: Homo sapiens, A-375, 72 h exposure. In kind it is cell-based. In short, it runs like this:
(§1)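 Cells grown in RPMI 1640 with 10% FBS were seeded at about 4000 cells/well, left 24 h, then exposed to compound for 72 h (1% DMSO final). MTT absorbance at 570 nm was compared with viable cells at time of addition to give growth inhibition; IC50 from concentration–inhibition plots, triplicates.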
(In general: Tetrazolium assays rely on reduction of a dye to a coloured formazan, in cell work by metabolically active cells.)

For the next test, the target named is BRAF V600E (Homo sapiens (Human), UniProt P15056, V600E). The test is described as follows: Z′-LYTE kinase inhibition assay (Invitrogen), BRAF V600E. In kind it is biochemical. The note with it: 1 μM compound, Z′-LYTE method; read-out: % inhibition at 1 μM against BRAF V600E. The procedure, abridged: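 FRET-based Z′-LYTE peptide phosphorylation format in 50 mM HEPES pH 7.5, 0.01% BRIJ-35, 10 mM MgCl2, 1 mM EGTA with ATP. Kinase reaction 60 min at room temperature, then protease development step 60 min at room temperature before fluorescence read. IC50 from compound concentration versus percent inhibition.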

The target of another test is KDR (VEGFR2) (Homo sapiens (Human), UniProt P35968). The test can be described thus: Z′-LYTE kinase inhibition assay (Invitrogen), KDR. Type of test: biochemical. The conditions noted are these: Z′-LYTE method; for inhibition at 1 µM: 1 μM compound, read-out: % inhibition at 1 μM against KDR. In short, it runs like this:
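Z′-LYTE FRET assay: 10 μL reactions with 0.5–11.7 ng KDR and 2 μM Tyr 01 peptide in 50 mM HEPES pH 7.5, 10 mM MgCl2, 1 mM EGTA, 0.01% BRIJ-35, 1 h at room temperature. Development Reagent B (1:256) added for 60 min, fluorescence read; IC50 from concentration–inhibition curves.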

The next test has as its system A549 cells. The test can be described thus: Inhibition of cancer cell growth, MTT assay, A549. Type of test: cell-based. The note with it: Homo sapiens, A549, 72 h exposure. In short, it runs like this:
as §1

Structures are written as SMILES.

Sequence of BRAF V600E (P15056 whole entry V600E): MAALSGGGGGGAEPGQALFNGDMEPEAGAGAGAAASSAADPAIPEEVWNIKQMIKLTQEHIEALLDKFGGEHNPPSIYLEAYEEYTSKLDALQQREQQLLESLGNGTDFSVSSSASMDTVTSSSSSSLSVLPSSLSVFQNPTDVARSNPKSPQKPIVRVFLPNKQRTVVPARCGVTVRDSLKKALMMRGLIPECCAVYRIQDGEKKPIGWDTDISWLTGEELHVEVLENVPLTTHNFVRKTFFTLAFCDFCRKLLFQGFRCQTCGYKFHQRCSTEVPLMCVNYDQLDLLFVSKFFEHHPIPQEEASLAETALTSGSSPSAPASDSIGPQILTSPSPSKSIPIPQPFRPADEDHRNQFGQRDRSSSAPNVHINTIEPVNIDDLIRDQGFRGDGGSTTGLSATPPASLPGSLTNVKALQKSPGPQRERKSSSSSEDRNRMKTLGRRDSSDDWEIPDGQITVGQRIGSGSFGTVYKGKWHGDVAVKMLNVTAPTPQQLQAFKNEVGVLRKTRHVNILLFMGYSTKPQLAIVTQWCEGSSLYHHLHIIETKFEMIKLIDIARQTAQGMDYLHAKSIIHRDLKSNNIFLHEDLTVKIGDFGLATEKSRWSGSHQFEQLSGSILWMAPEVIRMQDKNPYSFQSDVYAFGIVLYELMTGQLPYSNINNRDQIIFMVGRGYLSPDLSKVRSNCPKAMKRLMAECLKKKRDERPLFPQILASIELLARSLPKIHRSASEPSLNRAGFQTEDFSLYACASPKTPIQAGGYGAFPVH
Sequence of KDR (VEGFR2) (P35968 20-1356): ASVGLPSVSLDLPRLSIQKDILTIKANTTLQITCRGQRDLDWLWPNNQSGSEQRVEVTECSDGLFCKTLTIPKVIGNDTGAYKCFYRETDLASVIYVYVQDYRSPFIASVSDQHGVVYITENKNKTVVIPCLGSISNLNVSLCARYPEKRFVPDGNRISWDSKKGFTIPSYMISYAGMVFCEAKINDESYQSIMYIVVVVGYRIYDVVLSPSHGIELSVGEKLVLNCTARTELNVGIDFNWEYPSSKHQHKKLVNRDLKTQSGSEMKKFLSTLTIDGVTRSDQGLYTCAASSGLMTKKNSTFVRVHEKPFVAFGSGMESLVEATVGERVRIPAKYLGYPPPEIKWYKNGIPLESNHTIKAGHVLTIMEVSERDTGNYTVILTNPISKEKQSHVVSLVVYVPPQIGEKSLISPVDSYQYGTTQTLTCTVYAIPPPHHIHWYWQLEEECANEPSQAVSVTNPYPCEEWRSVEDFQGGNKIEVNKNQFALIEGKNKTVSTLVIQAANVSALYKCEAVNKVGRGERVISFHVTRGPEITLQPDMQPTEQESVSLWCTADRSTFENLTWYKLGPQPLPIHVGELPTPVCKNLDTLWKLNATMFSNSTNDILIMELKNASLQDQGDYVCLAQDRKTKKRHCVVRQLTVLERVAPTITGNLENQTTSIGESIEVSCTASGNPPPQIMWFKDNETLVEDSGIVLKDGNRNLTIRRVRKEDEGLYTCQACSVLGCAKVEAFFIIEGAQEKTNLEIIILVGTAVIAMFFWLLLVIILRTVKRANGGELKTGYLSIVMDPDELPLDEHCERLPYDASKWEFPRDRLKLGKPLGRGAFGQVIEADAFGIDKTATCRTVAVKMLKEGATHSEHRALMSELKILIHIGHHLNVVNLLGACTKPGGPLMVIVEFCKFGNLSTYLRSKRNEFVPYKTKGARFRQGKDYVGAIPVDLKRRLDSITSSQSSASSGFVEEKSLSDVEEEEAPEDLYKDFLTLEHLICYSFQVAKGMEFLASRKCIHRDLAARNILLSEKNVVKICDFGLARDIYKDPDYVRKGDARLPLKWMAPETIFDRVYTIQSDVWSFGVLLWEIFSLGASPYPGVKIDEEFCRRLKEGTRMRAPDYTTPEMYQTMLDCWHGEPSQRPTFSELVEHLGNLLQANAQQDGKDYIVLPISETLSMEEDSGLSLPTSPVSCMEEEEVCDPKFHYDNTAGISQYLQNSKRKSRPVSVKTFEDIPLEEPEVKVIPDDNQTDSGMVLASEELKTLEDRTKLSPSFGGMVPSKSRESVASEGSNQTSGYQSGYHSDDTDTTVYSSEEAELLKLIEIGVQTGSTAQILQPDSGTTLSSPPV

The term IC50 denotes the concentration that inhibits the measured activity by half. The term inhibition denotes the drop in the measured response relative to a control, in per cent. For the molecule `O=C(Nc1cccc(Cl)c1)Nc1ccc(F)c(C(=O)c2ccc3nccnc3c2)c1` [Compound C072, 1-(3-chlorophenyl)-3-(4-fluoro-3-(quinoxaline-6-carbonyl)phenyl)urea], the IC50 with A375 cells was 1 to 5 µM; in the test on A549 cells it was over 5 µM. The inhibition at 1 µM is over 89% at BRAF V600E and under 70% on KDR (VEGFR2).

Turning to `O=C(Nc1ccc(F)c(Cl)c1)Nc1ccc(F)c(C(=O)c2ccc3nccnc3c2)c1` [Compound C073, 1-(3-chloro-4-fluorophenyl)-3-(4-fluoro-3-(quinoxaline-6-carbonyl)phenyl)urea], the IC50 in the test on A375 cells was 1 to 5 µM; in the test with A549 cells, over 5 µM. Also, the inhibition at 1 µM at BRAF V600E and at KDR (VEGFR2) was over 89% throughout.

For the molecule `O=C(Nc1ccc(Cl)cc1)Nc1ccc(F)c(C(=O)c2ccc3nccnc3c2)c1` [Compound C074, 1-(4-chlorophenyl)-3-(4-fluoro-3-(quinoxaline-6-carbonyl)phenyl)urea], the IC50 in the test on A375 cells is 1 to 5 µM; with A549 cells it was over 5 µM. In addition, the inhibition at 1 µM was over 89% at BRAF V600E and under 70% at KDR (VEGFR2).

As to `O=C(Nc1ccc(C(F)(F)F)cc1)Nc1ccc(F)c(C(=O)c2ccc3nccnc3c2)c1` [Compound C075, 1-(4-fluoro-3-(quinoxaline-6-carbonyl)phenyl)-3-(4-(trifluoromethyl)phenyl)urea], the IC50 was under 1 µM in the test with A375 cells and under 2 µM with A549 cells. The inhibition at 1 µM at BRAF V600E was over 89%; on KDR (VEGFR2), under 70%.

For `O=C(Nc1ccc(Cl)c(F)c1)Nc1ccc(F)c(C(=O)c2ccc3nccnc3c2)c1` [Compound C077, 1-(4-chloro-3-fluorophenyl)-3-(4-fluoro-3-(quinoxaline-6-carbonyl)phenyl)urea], the results for the IC50 in the test on A375 cells and in the test on A549 cells were 1 to 5 µM and over 5 µM, respectively. In addition, the inhibition at 1 µM at BRAF V600E is over 89%; at KDR (VEGFR2) it was under 70%.

Take `O=C(Nc1cc(F)cc(Cl)c1)Nc1ccc(F)c(C(=O)c2ccc3nccnc3c2)c1` [Compound C078, 1-(3-chloro-5-fluorophenyl)-3-(4-fluoro-3-(quinoxaline-6-carbonyl)phenyl)urea]: the results for the IC50 in the test on A375 cells and in the test with A549 cells were 1 to 5 µM and 2 to 5 µM, respectively. Also, the inhibition at 1 µM is over 89% at BRAF V600E and 70 to 89% on KDR (VEGFR2).

As to `COc1cnc2ccc(C(=O)c3cc(NC(=O)Nc4cccc(F)c4)ccc3F)cc2n1` [Compound C083, 1-(4-fluoro-3-(3-methoxyquinoxaline-6-carbonyl)phenyl)-3-(3-fluorophenyl)urea], the results for the IC50 in the test on A375 cells and with A549 cells were 1 to 5 µM and over 5 µM, respectively. The inhibition at 1 µM on BRAF V600E is over 89%; at KDR (VEGFR2), 70 to 89%.

On to `O=C(Nc1cccc(F)c1)Nc1ccc(F)c(C(=O)c2ccc3ncc(N4CCNCC4)nc3c2)c1` [Compound C084, 1-(4-fluoro-3-(3-(piperazin-1-yl)quinoxaline-6-carbonyl)phenyl)-3-(3-fluorophenyl)urea], for which the IC50 is under 1 µM with A375 cells and 2 to 5 µM in the test with A549 cells. Also, the inhibition at 1 µM at BRAF V600E and at KDR (VEGFR2) was over 89% in each case.

On to `O=C(Nc1ccc(F)c(C(=O)c2ccc3ncc(N4CCNCC4)nc3c2)c1)Nc1ccc(Cl)c(C(F)(F)F)c1` [Compound C086], for which the IC50 was under 1 µM in the test with A375 cells, under 0.1 µM on KDR (VEGFR2) (read-out: IC50 against KDR) and 2 to 5 µM in the test with A549 cells. The inhibition at 1 µM on BRAF V600E and at KDR (VEGFR2) was over 89% in each case.

In the case of `NCCNc1cnc2ccc(C(=O)c3cc(NC(=O)Nc4cccc(F)c4)ccc3F)cc2n1` [Compound C088, 1-(3-(3-((2-aminoethyl)amino)quinoxaline-6-carbonyl)-4-fluorophenyl)-3-(3-fluorophenyl)urea], the figures for the IC50 in the test on A375 cells and in the test with A549 cells were 1 to 5 µM and over 5 µM, respectively. In addition, the inhibition at 1 µM on BRAF V600E and at KDR (VEGFR2) was over 89% in each case.

Take `NCCNc1cnc2ccc(C(=O)c3cc(NC(=O)Nc4ccc(F)cc4)ccc3F)cc2n1` [Compound C089, 1-(3-(3-((2-aminoethyl)amino)quinoxaline-6-carbonyl)-4-fluorophenyl)-3-(4-fluorophenyl)urea]: the IC50 in the test with A375 cells is 1 to 5 µM; in the test with A549 cells it was over 5 µM. For the same molecule, the inhibition at 1 µM on BRAF V600E and at KDR (VEGFR2) was over 89% throughout.

As for `NCCNc1cnc2ccc(C(=O)c3cc(NC(=O)Nc4ccc(F)c(F)c4)ccc3F)cc2n1` [Compound C091, 1-(3-(3-((2-aminoethyl)amino)quinoxaline-6-carbonyl)-4-fluorophenyl)-3-(3,4-difluorophenyl)urea], the IC50 is 1 to 5 µM with A375 cells and over 5 µM in the test on A549 cells. In addition, the inhibition at 1 µM at BRAF V600E and on KDR (VEGFR2) was over 89% each time.

For the molecule `NCCNc1cnc2ccc(C(=O)c3cc(NC(=O)Nc4cc(F)cc(F)c4)ccc3F)cc2n1` [Compound C092, 1-(3-(3-((2-aminoethyl)amino)quinoxaline-6-carbonyl)-4-fluorophenyl)-3-(3,5-difluorophenyl)urea], the IC50 with A375 cells was 1 to 5 µM; with A549 cells it was over 5 µM. In addition, the inhibition at 1 µM at BRAF V600E is over 89%; on KDR (VEGFR2), 70 to 89%.

For the molecule `O=C(Nc1ccc(F)c(C(=O)c2ccc3nccnc3c2)c1F)c1cccc(F)c1` [Compound C113, N-(2,4-difluoro-3-(quinoxaline-6-carbonyl)phenyl)-3-fluorobenzamide], the IC50 with A375 cells and with A549 cells was over 5 µM in each case. For the same molecule, the inhibition at 1 µM on BRAF V600E is 70 to 89%; on KDR (VEGFR2), under 70%.

As for `O=C(Nc1ccc(F)c(C(=O)c2ccc3nccnc3c2)c1)c1cccc(F)c1` [Compound C115, 3-fluoro-N-(4-fluoro-3-(quinoxaline-6-carbonyl)phenyl)benzamide], the IC50 in the test with A375 cells and in the test on A549 cells was over 5 µM in each case. The inhibition at 1 µM at BRAF V600E was over 89%; at KDR (VEGFR2), 70 to 89%.

As for `O=C(Nc1ccc(F)c(C(=O)c2ccc3nccnc3c2)c1)c1ccc(Cl)c(C(F)(F)F)c1` [Compound C117, 4-chloro-N-(4-fluoro-3-(quinoxaline-6-carbonyl)phenyl)-3-(trifluoromethyl)benzamide], the IC50 with A375 cells lay within 1 to 5 µM; in the test with A549 cells it was 2 to 5 µM. In addition, the inhibition at 1 µM on BRAF V600E was over 89%; on KDR (VEGFR2), 70 to 89%.

Consider `O=C(Nc1cccc(C(=O)c2ccc3ncc(N4CCOCC4)nc3c2)c1)c1cccc(F)c1` [Compound C118, 3-fluoro-N-(3-(3-morpholinoquinoxaline-6-carbonyl)phenyl)benzamide], for which the IC50 in the test on A375 cells fell in the range of 1 to 5 µM; in the test with A549 cells, 2 to 5 µM. For the same molecule, the figures for the inhibition at 1 µM on BRAF V600E and at KDR (VEGFR2) were over 89% and 70 to 89%, respectively.

Turning to `O=C(Nc1cccc(C(=O)c2ccc3ncc(N4CCOCC4)nc3c2)c1)c1ccc(Cl)c(C(F)(F)F)c1` [Compound C120, 4-chloro-N-(3-(3-morpholinoquinoxaline-6-carbonyl)phenyl)-3-(trifluoromethyl)benzamide], the IC50 was in the range of 1 to 5 µM in the test on A375 cells and 2 to 5 µM with A549 cells. For the same molecule, the inhibition at 1 µM was over 89% at BRAF V600E and 70 to 89% on KDR (VEGFR2).

As to `O=C(Nc1cccc(C(=O)c2ccc3ncc(N4CCCC4)nc3c2)c1)c1ccc(Cl)c(C(F)(F)F)c1` [Compound C123, 4-chloro-N-(3-(3-(pyrrolidin-1-yl)quinoxaline-6-carbonyl)phenyl)-3-(trifluoromethyl)benzamide], the IC50 in the test with A375 cells and in the test on A549 cells was over 5 µM each time. For the same molecule, the inhibition at 1 µM at BRAF V600E and at KDR (VEGFR2) was 70 to 89% in each case.

Consider `O=C(Nc1cc(F)cc(C(=O)c2ccc3nccnc3c2)c1)c1cccc(F)c1` [Compound C125, 3-fluoro-N-(3-fluoro-5-(quinoxaline-6-carbonyl)phenyl)benzamide], for which the IC50 in the test with A375 cells and in the test on A549 cells was over 5 µM throughout. The inhibition at 1 µM at BRAF V600E and on KDR (VEGFR2) was under 70% throughout.

For `O=C(Nc1cc(F)cc(C(=O)c2ccc3nccnc3c2)c1)c1cccc(C(F)(F)F)c1` [Compound C126, N-(3-fluoro-5-(quinoxaline-6-carbonyl)phenyl)-3-(trifluoromethyl)benzamide], the IC50 in the test with A375 cells was 1 to 5 µM; in the test on A549 cells, over 5 µM. The inhibition at 1 µM on BRAF V600E was over 89%; at KDR (VEGFR2) it was under 70%.

For `O=C(Nc1cc(F)cc(C(=O)c2ccc3nccnc3c2)c1)c1ccc(Cl)c(C(F)(F)F)c1` [Compound C127, 4-chloro-N-(3-fluoro-5-(quinoxaline-6-carbonyl)phenyl)-3-(trifluoromethyl)benzamide], the IC50 in the test with A375 cells and in the test with A549 cells was over 5 µM each time. Also, the inhibition at 1 µM at BRAF V600E was 70 to 89%; at KDR (VEGFR2), under 70%.

Regarding `O=C(Nc1cc(F)c(F)c(C(=O)c2ccc3nccnc3c2)c1)c1cccc(C(F)(F)F)c1` [Compound C128, N-(3,4-difluoro-5-(quinoxaline-6-carbonyl)phenyl)-3-(trifluoromethyl)benzamide], the IC50 in the test with A375 cells was 1 to 5 µM; in the test with A549 cells, over 5 µM. For the same molecule, the inhibition at 1 µM is over 89% at BRAF V600E and 70 to 89% on KDR (VEGFR2).

(Values after patent US10759766B2, “Certain chemical entities, compositions, and methods” (NeuPharma, Inc., priority 2011, dated 2020).)
